# From patent US9557319B2, “Cell-based arrays, methods of making, and methods of using” (University of Florida Research Foundation, Inc., priority 2010, dated 2017)
# Test system: HCT116 cells
# Experiment: HCT116 cell number (Hoechst nuclear stain) on drug-loaded microarray
# Assay type: cell-based, human
# Settings: after 72 h
# From the text: The following figures (FIGS. 5.1 to 5.4) are micrographs taken from drug-eluting cellular microarrays, manufactured as described herein. The images are taken from individual cellular islands from the same array under various drug-loading conditions over a period of three days. HCT116 cells are nuclear stained with Hoechst for easy visibility. […] The water phase for this experiment was loaded with azide at various concentrations in addition to a control with no drug loaded. Azide is a useful probe reagent, mutagen, and preservative. Azide inhibits cytochrome oxidase by binding irreversibly to the heme cofactor in a process similar to the action of carbon monoxide. As such, it is expected to induce necrosis in cells at physiologically relevant doses.
# To establish microarray fidelity, microarrays were manufactured as described above. HCT116 cells were then seeded over microarrays and incubated for 24 or 72 h. Microarrays were fixed in 4% paraformaldehyde and stained with Hoechst 34580 dye.
# Camptothecin-loaded microarrays were stained with Annexin V (BD Pharminigen), fixed in 4% paraformaldehyde, and placed in PBS with Hoechst dye 34580 (Invitrogen, USA) for 30 min. Azide-loaded microarrays were fixed with 4% paraformaldehyde and incubated with PBS containing Hoechst 34580 dye. Finally, nutlin-3a-loaded microarrays were fixed with 4% paraformaldehyde, stained with BrdU (BD Bioscience, San Jose, Calif.), and incubated in PBS containing Hoechst 34580 dye. All arrays were mounted with Fluoro-Gel (Electron Microscope Sciences, Hatfield, Pa.) and imaged using an Axiovert 200M microscope (Carl Zeiss, Oberkochen, Germany). Analysis was performed with Axiovision (Carl Zeiss, Oberkochen, Germany) by quantifying, in each drug-eluting island, the area of fluorescence and reported as relative fluorescence intensity (RFI).
smiles,measurement,value
COc1ccc(C2=N[C@@H](c3ccc(Cl)cc3)[C@@H](c3ccc(Cl)cc3)N2C(=O)N2CCNC(=O)C2)c(OC(C)C)c1 [Nutlin-3a],HCT116 cell numbers vs drug loading concentration,decreased with increasing loading concentrations
